According to patent US8846739B2, “TGR5 agonists” (Exelixis Patent Company LLC, priority 2009, dated 2014):

Legend:
human TGR5 (h-TGR5) = molecular target: T1, human TGR5 (h-TGR5) (Homo sapiens, UniProt Q8TDU6); experiment: TGR5/CRE-Luciferase Assay; type: cell-based; conditions: HEK 293 hTGR5/CRE-Luc cells, 6 hours incubation, read-out: CRE-Luc Agonist (EC50)
T1 sequence (Q8TDU6 1-330): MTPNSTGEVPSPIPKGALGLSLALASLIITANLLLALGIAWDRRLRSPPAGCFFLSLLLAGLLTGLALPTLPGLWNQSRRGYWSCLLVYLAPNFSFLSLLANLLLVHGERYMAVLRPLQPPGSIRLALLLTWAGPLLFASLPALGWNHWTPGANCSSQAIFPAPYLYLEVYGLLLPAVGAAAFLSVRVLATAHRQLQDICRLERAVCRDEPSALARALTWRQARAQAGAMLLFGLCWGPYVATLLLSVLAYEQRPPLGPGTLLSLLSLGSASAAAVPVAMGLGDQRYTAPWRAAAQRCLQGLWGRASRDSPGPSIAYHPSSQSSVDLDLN
Experimental: HEK 293 cells stably expressing human TGR5 (h-TGR5) or mouse TGR5 (m-TGR5) were generated from HEK 293 CRE-Luciferase cells. The day before the assay, HEK 293 hTGR5/CRE-Luc cells were plated in DMEM in a 384 well assay plate at a density of 25 k cells/45 μL per well and grown for 18-20 hours. Compounds were serially diluted in DMEM containing 5% DMSO and 5 µL of compound or media alone was transferred to each well and plates were incubated for 6 hours. Following incubation, 30 μL of lysis/luciferase buffer was added to each well. The luciferase activity was then measured on the EnVision™ plate reader and the dose response data was analyzed using ActivityBase.
(§1) In the following tables, ECso values determined according to the TGR5 cAMP Assay are noted (cAMP); EC50 values determined according to the TGR5/CRE-Luciferiase Assay are noted (CRE-Luc).

h-TGR5 = molecular target: T2, h-TGR5 (Homo sapiens, UniProt Q8TDU6); experiment: TGR5 cAMP Assay using Cisbio cAMP Dynamic 2 htrf assay kit; type: cell-based; conditions: hTGR5CRE-luc HEK 293 cells
T2 sequence (Q8TDU6 1-330): T1 sequence (Q8TDU6 1-330)
Experimental: Compounds were diluted in DPBS with 5% DMSO (8-point serial dilution by half logs) in a 96-well plate and 1 μL was transferred to a 384-well assay plate in quadruplicate. The d2-cAMP and anti-cAMP Ab-cryptate stock solution were prepared as per the instructions in the Cisbio™ (Bedford, Mass.) kit. Cells (hTGR5CRE-luc HEK 293 and mTGR5CRE-luc HEK 293) were harvested using cell dissociation buffer and resuspended in DPBS. Cells were adjusted to 0.44×10^6 cells/ml followed by addition of IBMX to a final concentration of 0.5 mM. The cells were then mixed with d2-cAMP solution (7.1 mL cells+100 ul d2-cAMP) and 4000 cells (9 μL) were transferred to each well of the 384-well assay plate. Cells without d2-cAMP were added to eight wells as a negative control. The plate was covered and incubated at room temp for 30 min. Then 10 μL of Ab-cryptate solution was added to each well of the assay plate and incubated for 1 hr. The plate was read on an EnVision™ plate reader (Perkin-Elmer, Waltham, Mass.) and the DeltaF value was calculated as per the instructions in the Cisbio™ kit.
as §1

SMILES | EC50 (human TGR5 (h-TGR5)) | EC50 (h-TGR5)
CC[N+](C)(C)CCCN(C)S(=O)(=O)c1cc(F)c(CSc2ncc(C(C)(C)c3ccc(Cl)c(OC)c3)n2-c2ccc(F)cc2)c(Cl)c1 [Compound 11m, 3-[{[3-chloro-4-({[5-{1-[4-chloro-3-(methyloxy)phenyl]-1-methylethyl}-1-(4-fluorophenyl)-1H-imidazol-2-yl]thio}methyl)-5-fluorophenyl)sulfonyl}(methyl)amino]-N-ethyl-N,N-dimethylpropan-1-aminium] | < 0.1 µM | < 0.1 µM
COc1cc(C(C)(C)c2cnc(SCc3c(F)cc(S(=O)(=O)N4CC([N+](C)(C)C)C4)cc3Cl)n2-c2ccc(F)cc2)ccc1Cl [Compound 11n, 1-{[3-chloro-4-({[5-{1-[4-chloro-3-(methyloxy)phenyl]-1-methylethyl}-1-(4-fluorophenyl)-1H-imidazol-2-yl]thio}methyl)-5-fluorophenyl]sulfonyl}-N,N,N-trimethylazetidin-3-aminium] | < 0.1 µM | < 0.1 µM
COc1cc(C(C)(C)c2cnc(SCc3c(F)cc(S(=O)(=O)N4CCC([N+](C)(C)C)CC4)cc3Cl)n2-c2ccc(F)cc2)ccc1F [Compound 11o, 1-{[3-chloro-5-fluoro-4-({[5-{1-[4-fluoro-3-(methyloxy)phenyl]-1-methylethyl}-1-(4-fluorophenyl)-1H-imidazol-2-yl]thio}methyl)phenyl]sulfonyl}-N,N,N-trimethylpiperidin-4-aminium] | < 0.1 µM | < 0.1 µM
COc1cc(C(C)(C)c2cnc(SCc3c(F)cc(S(=O)(=O)N4CCC[C@@H]([N+](C)(C)C)C4)cc3Cl)n2-c2ccc(F)cc2)ccc1F [Compound 11p, (3R)-1-{[3-chloro-5-fluoro-4-({[5-{1-[4-fluoro-3-(methyloxy)phenyl]-1-methylethyl}-1-(4-fluorophenyl)-1H-imidazol-2-yl]thio}methyl)phenyl]sulfonyl}-N,N,N-trimethylpiperidin-3-aminium] | < 0.1 µM | < 0.1 µM
CC[N+](C)(C)C1CCN(S(=O)(=O)c2cc(F)c(CSc3ncc(C(C)(C)c4ccc(F)c(OC)c4)n3-c3ccc(F)cc3)c(Cl)c2)CC1 [Compound 11q, 1-{[3-chloro-5-fluoro-4-({[5-{1-[4-fluoro-3-(methyloxy)phenyl]-1-methylethyl}-1-(4-fluorophenyl)-1H-imidazol-2-yl]thio}methyl)phenyl]sulfonyl}-N-ethyl-N,N-dimethylpiperidin-4-aminium] | < 0.1 µM | < 0.1 µM
COc1cc(C(C)(C)c2cnc(SCc3c(F)cc(S(=O)(=O)N4CC(C[N+](C)(C)C)C4)cc3Cl)n2-c2ccc(F)cc2)ccc1Cl [Compound 11r, (1-{[3-chloro-4-({[5-{1-[4-chloro-3-(methyloxy)phenyl]-1-methylethyl}-1-(4-fluorophenyl)-1H-imidazol-2-yl]thio}methyl)-5-fluorophenyl]sulfonyl}azetidin-3-yl)-N,N,N-trimethylmethanaminium] | < 0.1 µM | < 0.1 µM
COc1cc(C(C)(C)c2cnc(SCc3c(F)cc(S(=O)(=O)NCC4CC[N+](C)(C)CC4)cc3Cl)n2-c2ccc(F)cc2)ccc1F [Compound 11s, 4-[({[3-chloro-5-fluoro-4-({[5-{1-[4-fluoro-3-(methyloxy)phenyl]-1-methylethyl}-1-(4-fluorophenyl)-1H-imidazol-2-yl]thio}methyl)phenyl]sulfonyl}amino)methyl]-1,1-dimethylpiperidinium] | < 0.1 µM | < 0.1 µM
COc1cc(C(C)(C)c2cnc(SCc3c(F)cc(S(=O)(=O)Nc4cccc[n+]4C)cc3Cl)n2-c2ccc(F)cc2)ccc1F [Compound 11t, 2-({[3-chloro-5-fluoro-4-({[5-{1-[4-fluoro-3-(methyloxy)phenyl]-1-methylethyl}-1-(4-fluorophenyl)-1H-imidazol-2-yl]thio}methyl)phenyl]sulfonyl}amino)-1-methylpyridinium] | < 0.1 µM | < 0.1 µM
COc1cc(C(C)(C)c2cnc(SCc3c(F)cc(S(=O)(=O)N4CCC[C@@H](C[N+](C)(C)C)C4)cc3Cl)n2-c2ccc(F)cc2)ccc1F [Compound 11u, [(3S)-1-{[3-chloro-5-fluoro-4-({[5-{1-[4-fluoro-3-(methyloxy)phenyl]-1-methylethyl}-1-(4-fluorophenyl)-1H-imidazol-2-yl]thio}methyl)phenyl]sulfonyl}piperidin-3-yl]-N,N,N-trimethylmethanaminium] | < 0.1 µM | < 0.1 µM

More lines, now with the values ahead:

EC50 (human TGR5 (h-TGR5)) | EC50 (h-TGR5) | SMILES
< 0.1 µM | < 0.1 µM | COc1cc(C(C)(C)c2cnc(SCc3c(F)cc(S(=O)(=O)N4CC[C@@H](C[N+](C)(C)C)C4)cc3Cl)n2-c2ccc(F)cc2)ccc1F [Compound 11v, [(3S)-1-{[3-chloro-5-fluoro-4-({[5-(1-[4-fluoro-3-(methyloxy)phenyl]-1-methylethyl}-1-(4-fluorophenyl)-1H-imidazol-2-yl]thio}methyl)phenyl]sulfonyl}pyrrolidin-3-yl]-N,N,N-trimethylmethanaminium]
< 0.1 µM | < 0.1 µM | COc1cc(C(C)(C)c2cnc(SCc3c(F)cc(S(=O)(=O)N4CCC[C@H](C[N+](C)(C)C)C4)cc3Cl)n2-c2ccc(F)cc2)ccc1F [Compound 11w, [(3R)-1-{[3-chloro-5-fluoro-4-({[5-{1-[4-fluoro-3-(methyloxy)phenyl]-1-methylethyl}-1-(4-fluorophenyl)-1H-imidazol-2-yl]thio}methyl)phenyl]sulfonyl}piperidin-3-yl]-N,N,N-trimethylmethanaminium]
< 0.1 µM | < 0.1 µM | COc1cc(C(C)(C)c2cnc(SCc3c(F)cc(S(=O)(=O)N4CCC(C[N+](C)(C)C)(C(=O)O)CC4)cc3F)n2-c2ccc(F)cc2)ccc1Cl [Compound 11x, (4-carboxy-1-{[4-({[5-{1-[4-chloro-3-(methyloxy)phenyl]-1-methylethyl}-1-(4-fluorophenyl)-1H-imidazol-2-yl]thio}methyl)-3,5-difluorophenyl]sulfonyl}piperidin-4-yl)-N,N,N-trimethylmethanaminium]
< 0.1 µM | < 0.1 µM | COc1cc(C(C)(C)c2cnc(SCc3c(F)cc(S(=O)(=O)N(C)CCC[N+](C)(C)C)cc3F)n2-c2ccc(F)cc2)ccc1Cl [Compound 12a, 3-(4-((5-(2-(4-chloro-3-methoxyphenyl)propan-2-yl)-1-(4-fluorophenyl)-1H-imidazol-2-ylthio)methyl)-3,5-difluoro-N-methylphenylsulfonamido)-N,N,N-trimethylpropan-1-aminium 2,2,2-trifluoroacetate]
< 0.1 µM | < 0.1 µM | COc1cc(C(C)(C)c2cnc(SCc3c(F)cc(S(=O)(=O)N(C)CCC[N+](C)(C)C)cc3Cl)n2-c2ccc(F)cc2)ccc1Cl [Compound 12c, 3-(3-chloro-4-((5-(2-(4-chloro-3-methoxyphenyl)propan-2-yl)-1-(4-fluorophenyl)-1H-imidazol-2-ylthio)methyl)-5-fluoro-N-methylphenylsulfonamido)-N,N,N-trimethylpropan-1-aminium 2,2,2-trifluoroacetate]
< 0.1 µM | < 0.1 µM | COc1cc(C(C)(C)c2cnc(SCc3c(F)cc(S(=O)(=O)N(C)CCC[N+](C)(C)C)cc3Cl)n2-c2ccc(F)cc2)ccc1F [Compound 12d, 3-(3-chloro-5-fluoro-4-((5-(2-(4-fluoro-3-methoxyphenyl)propan-2-yl)-1-(4-fluorophenyl)-1H-imidazol-2-ylthio)methyl)-N-methylphenylsulfonamido)-N,N,N-trimethylpropan-1-aminium 2,2,2-trifluoroacetate]
